According to patent publication US20120064008A1, “COMPOSITIONS FOR THE TREATMENT OF METASTATIC CANCER AND METHODS OF USE THEREOF” (priority 2009, published 2012):

Legend:
[1] = tested on: PC-3MLN4 cells; test: Experimental bone metastasis model, PC-3MLN4 cells expressing luciferase, intraosseous; type: in vivo, immunocompromised mice; conditions: 100 mg/kg for two weeks
Experimental: (§1) Using the metastatic prostate cancer PC-3MLN4 cells that expressed luciferase, the anti-tumor effects of benzimidazoles in a model of experimental bone metastasis were investigated. Cells were inoculated directly into a single tibia of immunocompromised mice via intraosseous injection. When bone lesions were confirmed to be growing via bioluminescent imaging, mice were randomized and treated with vehicle or with 100 mg/kg albendazole for two weeks. […] There was a significant difference in average luciferase signal between the two groups over the course of treatment (P<0.05).
At the end of study, the anatomical and radiographic characteristics of the bone lesions were evaluated with X-ray and micro-computerized tomography (CT) imaging.
as §1, with “(P<0.05) (see FIG. 13).” for “(P<0.05).”
At the end of study, the anatomical and radiographical characteristics of the bone lesions were evaluated with X-ray and micro-computerized tomography (CT) imaging.

[2] = tested on: DU-145TR cells; test: Gene expression profiling, DU-145 and DU-145TR; type: cell-based, human; conditions: DU-145TR vs DU-145, 2-fold cut off
Source text: In order to dissect the mechanisms underlying the anti-tumor effects of benzimidazoles in these cells, gene expression profiling was done comparing albendazole treated DU-145 and DU-145TR cells.

[3] = tested on: lung metastases; test: Lung metastasis model, survival; type: in vivo, mice
Experimental: In the lung metastasis model, treatment was initiated 10 days after the animals were inoculated with tumor cells. At this time, the lungs were riddled with metastases. Formulations containing a benzimidazole were injected into the peritoneum three times per week. Half of the control mice died by day 27, only 17 days after the animals started receiving treatments. In contrast, half of the mice treated with fenbendazole were still alive on day 37 and one-third were still alive at day 45.

SMILES	tumor growth (luciferase signal) compared to vehicle [1]	Ki-67 labeling index of bone lesions ([1]; P<0.005)	apoptotic index of bone lesions (activated caspase-3 staining) ([1]; P<0.005)	bone integrity (X-ray and micro-CT imaging) ([1]; end of study)	expression of ER stress signaling genes (ATF-2, ATF-3, HERPUD1, CHOP, ANKRD1, GADD45alpha) [2]	fraction of mice still alive at day 45 ([3]; i.p. three times per week from day 10 after inoculation)	day on which half of the mice were still alive ([3]; i.p. three times per week from day 10 after inoculation (half of control mice died by day 27))	prolonging the survival times compared with taxol ([3]; mouse, in vivo)
CCCSc1ccc2nc(NC(=O)OC)[nH]c2c1 [Albendazole, albendazole]	reduced tumor growth	reduction	increase	bone integrity was maintained	differentially expressed			
COC(=O)Nc1nc2ccc(Sc3ccccc3)cc2[nH]1 [Fenbendazole, fenbendazole]						one-third	37 days	equivalent to taxol
